According to patent US20130324555A1, “Method of use of pharmaceutical formulations for the treatment of apicomplexan diseases in animals” (priority 2012, published 2013):
Converted amounts (≈) assume the structure as drawn.

Legend:
[1] = system: P. falciparum D6 (CDC/Sierra Leone); experiment: Malaria SYBR Green 1-Based Fluorescence (MSF) Assay, strain D6; assay type: cell-based; conditions: Plasmodium falciparum, D6, read-out: D6 IC50
Procedure: Compound activity against P. falciparum, the causative agent of malaria, was assessed using the Malaria SYBR Green 1-Based Fluorescence (MSF) Assay. This microtiter plate drug sensitivity assay uses the presence of malarial DNA as a measure of parasitic proliferation. The assay is a microtiter plate drug sensitivity assay that uses the presence of malarial DNA as a measure of parasitic proliferation in the presence of antimalarial drugs or experimental compounds based on modifications of previously described methods (Plouffe et al., Proc Natl Acad Sci USA. 2008, 105, 9059-9064), (Johnson et al., Antimicrob. Agents Chemother. 2005, 49, 3463-3467).
Selected compounds were examined for activity against two strains of P. falciparum: D6 (CDC/Sierra Leone), a drug-sensitive and readily killed by chloroquine, and TM90-C235, a multi-drug resistant strain resistant to chloroquine.
D6 (CDC/Sierra Leone) and TM90-C235 (WRAIR, Thailand) laboratory strains of P. falciparum were used for each drug sensitivity assessment. The parasite strains were maintained continuously in long-term cultures as previously described in Johnson et al, and P. falciparum strains in late-ring or early-trophozoite stages were cultured in predosed 384-well microtiter drug assay plates in 38 μl culture volume per well at a starting parasitemia of 0.3% and a hematocrit of 2%. Pre-dosed, sterile, 384 well black optical bottom microtiter drug plates for use in the MSF assay were produced using a Tecan EVO Freedom Liquid Handling System (Tecan US, Durham, N.C.). Dose response plates were produced at a final concentration ranging from 0.5-10000 ng/ml in quadruplicate (twelve two-fold serial dilutions of each test compound or chloroquine control in DMSO. Each run was validated by a batch control plate with chloroquine (Sigma-Aldrich Co., Catalog #C6628) at a final concentration of 2000 ng/ml. The cultures were incubated for 72 hours at 37° C., 5% CO2, 5% O2 and 90% N2. Lysis buffer (38 μl per well), consisting of 20 mM Tris HCl, 5 mM EDTA, 1.6% Triton X, 0.016% saponin, and SYBR green I dye at a 20× concentration (Invitrogen, Catalog #S-7567) was then added to the assay plates utilizing the Tecan EVO Freedom system for a final SYBR Green concentration of 10×. Plates were incubated in the dark at room temperature in the dark for 24 hours.
Compound activity was assessed by examining for the relative fluorescence units (RFU) per well using the Tecan Genios Plus (Tecan US, Inc., Durham, N.C.). GraphPad Prism (GraphPad Software Inc., San Diego, Calif.) using the nonlinear regression (sigmoidal dose-response/variable slope) equation was used to determine IC50 values.

T. gondii tachyzoites = experiment: In vitro inhibition of T. gondii tachyzoites (RH-YFP fluorescence / [3H]-uracil incorporation); assay type: cell-based; conditions: for MIC50 / MIC90: Toxoplasma gondii, T. gondii tachyzoites in HFF cells; for activity against T. gondii tachyzoites, in words: only MIC50≦1 μM considered active
Procedure: Determination of the anti-apicomplexan activity of Compounds of Formula I may be determined by one skilled in the art. Parasite proliferation was monitored by using stably transfected type I RH-YFP parasites, which constitutively express Yellow Florescent Protein. Proliferation also was tested using a [^3H]-Uracil incorporation assay, as Uracil is incorporated into nucleic acids of T. gondii tachyzoites, but not mammalian cells, as they divide. Complimentary challenge assays ensured that the observed fluorescence data was due to parasite inhibition and not to quenched fluorescence. Pyrimethamine and sulfadiazine were used as positive controls, and DMSO at a concentration of 0.1% was used as the negative control. Because T. gondii is an obligate parasite, compounds that are toxic to host cells will appear to inhibit parasite growth. Therefore, all test compounds were simultaneously evaluated for efficacy and toxicity against human cells.
Test compounds were dissolved in DMSO to make a 10 mM solution, and subsequently diluted with IMDM-C to the concentrations used in bioassay. In the in vitro experiments DMSO concentration was not greater than 0.1% unless otherwise specified. RH-YFP parasites, which stably express Yellow Florescent Protein, were used. Tachyzoites were extracted from HFF cells by double passage through a 25-gauge needle, centrifuged for 15 minutes at 1500 RPM, and resuspended in IMDM-C. Confluent monolayers of HFF cells were infected with parasites in 96-well plates (Falcon 96 Optilux Flat-bottom) with 3,500 parasites in 100 uL per well. One hour after inoculation, test compounds and control media were added for a final volume of 200 uL per well. Parasite proliferation was assessed using [^3H]-Uracil incorporation or YFP Fluorescence assay.
Human Foreskin Fibroblast (HFF) cells were maintained in confluent monolayers in Iscoves's Modified Dulbecco's Medium supplemented with 10% fetal bovine serum, 1% GlutaMAX and 1% penicillin-streptomycin-fungizone (IMDM-C). T. gondii tachyzoites were cultivated in HFF monolayers. Parasites and cells were maintained at 33° C. or 37° C. and 5% CO2. The strains of parasite used in this study include RH, RH-YFP, and Prugnaud FLUC (Type 2 parasites stably transfected with luciferase), Me49 strain, and TgGoatUS4 isolate.
25 μL of 0.1 mCi/mL*^3H]-Uracil or [^3H]-Thymidine was added to each well 24 hours before reading plates. At harvesting, contents of the wells were transferred onto a 96-well UniFilter GF/C filter plates using a Filtermate 196 cell harvester (Packard). [^3H]-Uracil and [^3H]-Thymidine incorporation was measured using a Microplate Scintillation Luminescence Counter (Packard).
72 hours after initiation of the in vitro challenge assay, parasite proliferation was assessed by reading fluorescence of YFP parasites with a Synergy H4 Hybrid Reader (BioTek) and Gen5 1.10 software, using a bottom optics positions, excitation wavelength of 514 nm, and emission wavelength of 540 nm.

[2] = Hydrolytic stability of acylated derivatives (data not shown); assay type: physicochemical
Procedure: A cursory study of the effect of capping the phenol of 4 via acylation was undertaken. The acylated derivatives 7 were prepared and tested. […] The intrinsic activity of intact 7a cannot yet be ruled out, and this interesting phenomenon is currently under study.

Row | IC50 [1] [ng/mL] | SMILES | MIC50 (T. gondii tachyzoites) [µM] | MIC90 (T. gondii tachyzoites) [µM] | activity against T. gondii tachyzoites, in words (T. gondii tachyzoites) | stability against hydrolysis [2]
1 | 3.8 (≈ 0.0119 µM) | CCN(CC)CCCC(C)Nc1ccnc2cc(Cl)ccc12 (stereo not drawn) [Chloroquine, reference compound] |  |  |  | 
2 |  | Cc1cccc(NC(=O)c2cc(Cl)ccc2O)c1 [Compound 3a] | > 1 | > 1 |  | 
3 |  | O=C(Nc1cccc(Cl)c1)c1cc(I)cc(I)c1O [Compound 3aa] | > 1 | > 1 | no activity | 
4 |  | O=C(Nc1ccc2c(c1)OCCO2)c1cc(Cl)ccc1O [Compound 3ab] | > 1 | > 1 | devoid of activity | 
5 |  | CCOc1cccc(NC(=O)c2cc(F)ccc2O)c1 [Compound 3ac] | > 1 | > 1 | no activity | 
6 |  | C#Cc1cccc(NC(=O)c2cc(Cl)ccc2O)c1 [Compound 3d] | > 1 | > 1 |  | 
7 |  | N#Cc1cccc(NC(=O)c2cc(Cl)ccc2O)c1 [Compound 3g] | > 1 | > 1 |  | 
8 |  | O=C(Nc1ccc([N+](=O)[O-])cc1Cl)c1ccccc1O [Compound 3k] | > 1 | > 1 | eliminated activity altogether | 
9 |  | O=C(Nc1cc(F)cc(F)c1)c1cc(Cl)ccc1O [Compound 3o] | > 1 | > 1 | inactive | 
10 |  | O=C(Nc1ccc(Cl)cc1F)c1cc(Cl)ccc1O [Compound 3p, 5-chloro-N-(4-chloro-2-fluorophenyl)-2-hydroxybenzamide] |  |  | removed all activity | 
11 |  | COc1ccc(NC(=O)c2cc(Cl)ccc2O)c(OC)c1OC [Compound 3q] | > 1 | > 1 | devoid of activity | 
12 |  | Cc1cc(C)cc(NC(=O)c2cc(Cl)ccc2O)c1 [Compound 3s] | > 1 | > 1 |  | 
13 |  | C#Cc1cc(NC(=O)c2cc(Cl)ccc2O)ccc1F [Compound 3t] | > 1 | > 1 | inactive | 
14 |  | CCOc1cccc(NC(=O)c2cc(Cl)ccc2O)c1 [Compound 3u] | > 1 | > 1 |  | 
15 |  | COc1ccc(NC(=O)c2cc(Cl)ccc2O)cc1OC [Compound 3v] | > 1 | > 1 | devoid of activity | 
16 |  | CC(C)Oc1cccc(NC(=O)c2cc(Cl)ccc2O)c1 [Compound 3w] | > 1 | > 1 |  | 
17 |  | COc1cc(C)cc(NC(=O)c2cc(Cl)ccc2O)c1 [Compound 3x] | > 1 | > 1 |  | 
18 |  | O=C(Nc1cccc(Oc2ccccc2)c1)c1cc(Cl)ccc1O [Compound 3y] | > 1 | > 1 |  | 
19 |  | O=C(Nc1cccc(OC(F)F)c1)c1cc(Cl)ccc1O [Compound 3z] | > 1 | > 1 |  | 
20 |  | Nc1ccc(NC(=O)c2cc(Cl)ccc2O)c(Cl)c1 [Compound 5] | > 1 | > 1 | all activity was lost | 
21 |  | COC(=O)[C@@H]1CCCC1C(=O)Oc1ccc(Cl)cc1C(=O)Nc1ccc([N+](=O)[O-])cc1Cl (stereo partly drawn) [Compound 7b] | > 1 | > 1 | devoid of activity | much more stable against hydrolysis
22 |  | O=C(Nc1ccc([N+](=O)[O-])cc1Cl)c1cc(Cl)ccc1OC(=O)N1CCOCC1 [Compound 7c] | > 1 | > 1 | devoid of activity | much more stable against hydrolysis
23 |  | CN1CCN(C(=O)Oc2ccc(Cl)cc2C(=O)Nc2ccc([N+](=O)[O-])cc2Cl)CC1 [Compound 7d, 4-chloro-2-((2-chloro-4-nitrophenyl)carbamoyl)phenyl 4-methylpiperazine-1-carboxylate] |  |  | devoid of activity | much more stable against hydrolysis
24 |  | Cc1cccc(NC(=O)c2cc(F)ccc2O)c1 [Compound 10a] | > 1 | > 1 | inactive | 
25 |  | COc1cccc(NC(=O)c2cc(F)ccc2O)c1 [Compound 10b] | > 1 | > 1 | inactive | 
